Results taken from the NIST ThermoML archive (doi:10.1021/acs.jced.5b00326).
“And” between values parts separate entries of the source, which are not always exact repeats. Equal entries are not always repeated. ± gives the expanded uncertainty stated by the source.

Assay: mn = molality of the nth substance listed, in mol/kg
Settings: Liquid; for speed of sound: 100 kPa, Sing-around technique in a fixed-path interferometer; for mass density: 101 kPa, Vibrating tube method

CCCCCCn1cc[n+](C)c1.[Cl-] [1-hexyl-3-methylimidazolium chloride] + O
speed of sound, Frequency=3 MHz
Settings | 288.15 K | 293.15 K | 298.15 K | 303.15 K | 308.15 K
m1 = 0.01 | 1474.3 ± 20 m/s and 1468.6 ± 20 m/s | 1484.6 ± 20 m/s and 1490.1 ± 20 m/s | 1498.7 ± 20 m/s and 1505 ± 20 m/s | 1511 ± 20 m/s and 1517 ± 20 m/s | 1521.3 ± 20 m/s and 1525.1 ± 20 m/s
m1 = 0.03 | 1474.3 ± 20 m/s | 1490.1 ± 20 m/s | 1505 ± 20 m/s | 1517 ± 20 m/s | 1525.1 ± 20 m/s

mass density [kg/m3]
Settings | 288.15 K | 293.15 K | 298.15 K | 303.15 K | 308.15 K
m1 = 0.01 | 999.911 ± 14 | 999.007 ± 14 | 997.841 ± 14 | 996.436 ± 14 | 994.818 ± 14
m1 = 0.03 | 1000.17 ± 14 | 999.246 ± 14 | 998.052 ± 14 | 996.623 ± 14 | 995.004 ± 14

O=P([O-])([O-])O.[K+].[K+] [dipotassium hydrogen phosphate] + O
Settings | mass density, 288.15 K [kg/m3] | mass density, 293.15 K [kg/m3] | mass density, 298.15 K [kg/m3] | mass density, 303.15 K [kg/m3] | mass density, 308.15 K [kg/m3] | speed of sound, 288.15 K [m/s] | speed of sound, 293.15 K [m/s] | speed of sound, 298.15 K [m/s] | speed of sound, 303.15 K [m/s] | speed of sound, 308.15 K [m/s]
m1 = 0.01907 | 1001.68 ± 14 | 1000.76 ± 14 | 999.574 ± 14 | 998.164 ± 14 | 996.53 ± 14 | 1466.9 ± 20 | 1484.8 ± 20 | 1499.7 ± 20 | 1514.5 ± 20 | 1522.3 ± 20
m1 = 0.04894 | 1005.7 ± 14 | 1004.75 ± 14 | 1003.53 ± 14 | 1002.09 ± 14 | 1000.43 ± 14 | 1471.1 ± 20 | 1489 ± 20 | 1503.9 ± 20 | 1518.7 ± 20 | 1526.5 ± 20
m1 = 0.06838 | 1008.31 ± 14 | 1007.35 ± 14 | 1006.11 ± 14 | 1004.65 ± 14 | 1002.97 ± 14 | 1473.8 ± 20 | 1491.8 ± 20 | 1506.6 ± 20 | 1521.5 ± 20 | 1529.3 ± 20
m1 = 0.09992 | 1012.56 ± 14 | 1011.57 ± 14 | 1010.29 ± 14 | 1008.79 ± 14 | 1007.09 ± 14 | 1478.3 ± 20 | 1496.2 ± 20 | 1511.1 ± 20 | 1525.9 ± 20 | 1533.7 ± 20
m1 = 0.1992 | 1025.92 ± 14 | 1024.84 ± 14 | 1023.44 ± 14 | 1021.85 ± 14 | 1020.05 ± 14 | 1492.2 ± 20 | 1510.2 ± 20 | 1525 ± 20 | 1539.9 ± 20 | 1547.7 ± 20
m1 = 0.2993 | 1039.39 ± 14 | 1038.23 ± 14 | 1036.7 ± 14 | 1035.01 ± 14 | 1033.13 ± 14 | 1506.3 ± 20 | 1524.2 ± 20 | 1539.1 ± 20 | 1554 ± 20 | 1561.8 ± 20
m1 = 0.3965 | 1052.47 ± 14 | 1051.22 ± 14 | 1049.58 ± 14 | 1047.79 ± 14 | 1045.82 ± 14 | 1520 ± 20 | 1537.9 ± 20 | 1552.8 ± 20 | 1567.6 ± 20 | 1575.4 ± 20
m1 = 0.4942 | 1065.63 ± 14 | 1064.29 ± 14 | 1062.53 ± 14 | 1060.65 ± 14 | 1058.58 ± 14 | 1533.8 ± 20 | 1551.7 ± 20 | 1566.5 ± 20 | 1581.4 ± 20 | 1589.2 ± 20
m1 = 0.6 | 1079.87 ± 14 | 1078.43 ± 14 | 1076.55 ± 14 | 1074.56 ± 14 | 1072.4 ± 14 | 1548.6 ± 20 | 1566.6 ± 20 | 1581.4 ± 20 | 1596.3 ± 20 | 1604.1 ± 20
m1 = 0.6969 | 1092.92 ± 14 | 1091.39 ± 14 | 1089.39 ± 14 | 1087.3 ± 14 | 1085.06 ± 14 | 1562.3 ± 20 | 1580.2 ± 20 | 1595.1 ± 20 | 1609.9 ± 20 | 1617.7 ± 20
m1 = 0.7929 | 1105.83 ± 14 | 1104.22 ± 14 | 1102.11 ± 14 | 1099.92 ± 14 | 1097.59 ± 14 | 1575.8 ± 20 | 1593.7 ± 20 | 1608.6 ± 20 | 1623.4 ± 20 | 1631.2 ± 20
m1 = 0.8916 | 1119.12 ± 14 | 1117.41 ± 14 | 1115.18 ± 14 | 1112.9 ± 14 | 1110.48 ± 14 | 1589.7 ± 20 | 1607.6 ± 20 | 1622.5 ± 20 | 1637.3 ± 20 | 1645.1 ± 20
m1 = 0.9907 | 1132.46 ± 14 | 1130.67 ± 14 | 1128.32 ± 14 | 1125.93 ± 14 | 1123.43 ± 14 | 1603.6 ± 20 | 1621.5 ± 20 | 1636.4 ± 20 | 1651.2 ± 20 | 1659 ± 20

O=P([O-])([O-])O.[Na+].[Na+] [disodium hydrogen phosphate] + O
speed of sound [m/s], Frequency=3 MHz
Settings | 288.15 K | 293.15 K | 298.15 K | 303.15 K | 308.15 K
m1 = 0.02076 | 1467.8 ± 20 | 1485.6 ± 20 | 1500.3 ± 20 | 1515 ± 20 | 1522.8 ± 20
m1 = 0.04991 | 1472.7 ± 20 | 1490.4 ± 20 | 1505 ± 20 | 1519.3 ± 20 | 1527.1 ± 20
m1 = 0.07047 | 1476.2 ± 20 | 1493.8 ± 20 | 1508.3 ± 20 | 1522.4 ± 20 | 1530.2 ± 20
m1 = 0.1014 | 1481.5 ± 20 | 1498.9 ± 20 | 1513.2 ± 20 | 1527.1 ± 20 | 1534.9 ± 20
m1 = 0.1983 | 1497.9 ± 20 | 1514.9 ± 20 | 1528.8 ± 20 | 1541.6 ± 20 | 1549.4 ± 20
m1 = 0.2992 | 1515.1 ± 20 | 1531.5 ± 20 | 1544.9 ± 20 | 1556.8 ± 20 | 1564.5 ± 20
m1 = 0.394 | 1531.2 ± 20 | 1547.2 ± 20 | 1560.1 ± 20 | 1571 ± 20 | 1578.8 ± 20
m1 = 0.4957 | 1548.5 ± 20 | 1564 ± 20 | 1576.4 ± 20 | 1586.2 ± 20 | 1594 ± 20
m1 = 0.5971 | 1565.8 ± 20 | 1580.7 ± 20 | 1592.6 ± 20 | 1601.5 ± 20 | 1609.3 ± 20
m1 = 0.6947 | 1582.4 ± 20 | 1596.8 ± 20 | 1608.2 ± 20 | 1616.1 ± 20 | 1623.9 ± 20
m1 = 0.7942 | 1599.3 ± 20 | 1613.3 ± 20 | 1624.2 ± 20 | 1631 ± 20 | 1638.8 ± 20
m1 = 0.876 | 1613.2 ± 20 | 1626.8 ± 20 | 1637.3 ± 20 | 1643.3 ± 20 | 1651.1 ± 20
m1 = 0.976 | 1630.2 ± 20 | 1643.3 ± 20 | 1653.3 ± 20 | 1658.3 ± 20 | 1666.1 ± 20

mass density [kg/m3]
Settings | 288.15 K | 293.15 K | 298.15 K | 303.15 K | 308.15 K
m1 = 0.02076 | 1001.71 ± 14 | 1000.78 ± 14 | 999.59 ± 14 | 998.178 ± 14 | 996.536 ± 14
m1 = 0.04991 | 1005.35 ± 14 | 1004.39 ± 14 | 1003.16 ± 14 | 1001.72 ± 14 | 1000.04 ± 14
m1 = 0.07047 | 1007.92 ± 14 | 1006.93 ± 14 | 1005.68 ± 14 | 1004.22 ± 14 | 1002.52 ± 14
m1 = 0.1014 | 1011.78 ± 14 | 1010.76 ± 14 | 1009.47 ± 14 | 1007.97 ± 14 | 1006.24 ± 14
m1 = 0.1983 | 1023.89 ± 14 | 1022.75 ± 14 | 1021.33 ± 14 | 1019.74 ± 14 | 1017.89 ± 14
m1 = 0.2992 | 1036.51 ± 14 | 1035.25 ± 14 | 1033.7 ± 14 | 1032.01 ± 14 | 1030.03 ± 14
m1 = 0.394 | 1048.36 ± 14 | 1046.99 ± 14 | 1045.31 ± 14 | 1043.53 ± 14 | 1041.44 ± 14
m1 = 0.4957 | 1061.07 ± 14 | 1059.58 ± 14 | 1057.77 ± 14 | 1055.88 ± 14 | 1053.67 ± 14
m1 = 0.5971 | 1073.75 ± 14 | 1072.14 ± 14 | 1070.2 ± 14 | 1068.21 ± 14 | 1065.88 ± 14
m1 = 0.6947 | 1085.95 ± 14 | 1084.21 ± 14 | 1082.15 ± 14 | 1080.06 ± 14 | 1077.61 ± 14
m1 = 0.7942 | 1098.39 ± 14 | 1096.54 ± 14 | 1094.34 ± 14 | 1092.15 ± 14 | 1089.58 ± 14
m1 = 0.876 | 1108.62 ± 14 | 1106.66 ± 14 | 1104.36 ± 14 | 1102.1 ± 14 | 1099.43 ± 14
m1 = 0.976 | 1121.11 ± 14 | 1119.04 ± 14 | 1116.61 ± 14 | 1114.24 ± 14 | 1111.45 ± 14
